Patent US10710993B2, “Benzofuran pyrazole amine kinase inhibitor” (Hangzhou REX Pharmaceutical Co., LTD., priority 2016, dated 2020)

Experiments:
ALK L1196M = target: T1, ALK L1196M (Homo sapiens, UniProt Q9UM73, L1196M); test: LanthaScreen Eu Kinase Binding Assay (TR-FRET) on ALK mutant
T1 construct: purchased Life Technology
Text: Meanwhile, The LanthaScreen® Eu Kinase Binging Assay (TR-FRET) method was used for determining ALK Mutants (such as ALK L1196M) inhibitory activity IC50. LanthaScreen Eu kinase binding experiment detected Alexa Fluor conjugate or kinase “tracer” binding by adding Eu labeled antibodies or anti-label antibodies. The combination of tracer and antibody with kinase leads to a high level of FRET, whereas the use of kinase inhibitors in place of tracer may cause FRET loss.
(§1) The kinase activity assay was determined by using kinase assay panel (Life Technology) and the result was in table 1.

TEL-ALK-F1174L-BaF3 = target: T2, TEL-ALK-F1174L-BaF3 (Homo sapiens, UniProt Q9UM73, F1174L, cells depend on it); test: Cell proliferation experiment (Cell-Titer GLO), TEL-ALK-F1174L-BaF3; assay type: cell-based; settings: 72 h, read-out: IC50 TEL-ALK F1174L-BaF3
T2 construct: fused on or other part: TEL (ETV6) N-terminal oligomerising part fused before the ALK intracellular/kinase part; P41212 (Transcription factor ETV6)
T2 sequence (Q9UM73 whole entry F1174L, the tested form may be a part): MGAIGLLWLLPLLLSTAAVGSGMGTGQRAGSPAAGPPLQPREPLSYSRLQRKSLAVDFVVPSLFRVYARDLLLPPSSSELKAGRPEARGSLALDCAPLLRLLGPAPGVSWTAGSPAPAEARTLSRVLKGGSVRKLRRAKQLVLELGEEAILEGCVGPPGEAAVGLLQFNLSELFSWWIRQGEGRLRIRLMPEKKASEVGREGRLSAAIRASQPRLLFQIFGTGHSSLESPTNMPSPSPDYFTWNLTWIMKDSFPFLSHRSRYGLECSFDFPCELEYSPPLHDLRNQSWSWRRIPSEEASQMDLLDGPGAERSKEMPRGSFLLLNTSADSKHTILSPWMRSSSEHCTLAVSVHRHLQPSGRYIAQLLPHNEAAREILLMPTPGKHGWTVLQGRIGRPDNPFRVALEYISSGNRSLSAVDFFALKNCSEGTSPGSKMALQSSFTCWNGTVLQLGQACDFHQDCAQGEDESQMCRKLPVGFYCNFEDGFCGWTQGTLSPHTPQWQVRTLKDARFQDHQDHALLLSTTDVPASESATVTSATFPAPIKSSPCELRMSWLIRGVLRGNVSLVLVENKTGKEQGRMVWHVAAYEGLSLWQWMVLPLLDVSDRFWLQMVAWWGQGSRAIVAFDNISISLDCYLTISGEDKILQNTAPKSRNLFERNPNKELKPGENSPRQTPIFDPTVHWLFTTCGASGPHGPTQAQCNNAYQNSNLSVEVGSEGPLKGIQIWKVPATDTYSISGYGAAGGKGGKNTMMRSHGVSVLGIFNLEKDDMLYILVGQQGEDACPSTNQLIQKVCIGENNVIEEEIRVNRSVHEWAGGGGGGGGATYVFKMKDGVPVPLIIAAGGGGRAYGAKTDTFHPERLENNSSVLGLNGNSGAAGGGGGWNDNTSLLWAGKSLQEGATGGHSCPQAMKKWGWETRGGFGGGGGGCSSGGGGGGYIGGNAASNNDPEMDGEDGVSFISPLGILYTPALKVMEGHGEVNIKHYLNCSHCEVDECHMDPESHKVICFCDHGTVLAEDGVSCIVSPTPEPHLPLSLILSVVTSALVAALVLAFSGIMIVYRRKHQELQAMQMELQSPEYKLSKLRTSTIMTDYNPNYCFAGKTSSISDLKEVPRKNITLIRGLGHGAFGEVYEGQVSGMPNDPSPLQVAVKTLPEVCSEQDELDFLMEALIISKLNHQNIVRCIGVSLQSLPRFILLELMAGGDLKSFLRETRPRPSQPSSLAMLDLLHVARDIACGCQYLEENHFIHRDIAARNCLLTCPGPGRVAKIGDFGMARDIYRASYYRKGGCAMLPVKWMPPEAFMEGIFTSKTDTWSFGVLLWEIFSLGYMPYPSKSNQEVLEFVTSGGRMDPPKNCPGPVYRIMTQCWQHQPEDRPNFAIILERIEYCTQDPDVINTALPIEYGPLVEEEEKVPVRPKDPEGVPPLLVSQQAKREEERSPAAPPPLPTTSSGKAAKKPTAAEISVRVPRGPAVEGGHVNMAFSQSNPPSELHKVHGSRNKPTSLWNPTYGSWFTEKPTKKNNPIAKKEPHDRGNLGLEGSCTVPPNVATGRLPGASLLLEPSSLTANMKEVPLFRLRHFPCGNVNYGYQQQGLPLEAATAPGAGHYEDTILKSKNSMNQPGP
Experimental: (§2) Compounds to be tested: Positive compound Ceritinib and the compounds obtained by the examples of the present invention.
(§3) Cell lines: Karpas-299 and NCI-H3122 which were purchased from the Nanjing kebai biotechnology Co. LTD; TEL-ALK-F1174L-BaF3, TEL-ALK-G1202R-BaF3, TEL-ALK-C1156Y-BaF3 and TEL-ALK-L1196M-BaF3 which were purchased from Hefei zhongkopruisheng biological medicine technology Co. LTD.
(§4) Method: Cells were seeded in 96-well plates for 24 h in growth media containing 10% fetalbovine serum (FBS) and cultured overnight at 37° C. The following day, serial dilutions of compounds or appropriate control were added to the designated wells, and cells were incubated at 37° C. for 72 h. A Cell Titer Glo assay (Promega) was then performed to determine the relative cell numbers. IC50 values were calculated by concentration-response curve fitting using a four-parameter analytical method with Graphpad 6.0. Drug inhibition rate (%)=100%−[OD(Compound)−OD(blank)]/[OD(vehicle)−OD(blank)]×100% Equation: […]

Wild-Type ALK = target: T3, Wild-Type ALK (Homo sapiens, UniProt Q9UM73); test: Z'-LYTE (FRET) ALK kinase inhibitory activity; assay type: biochemical
T3 construct: purchased Life Technology
T3 sequence (Q9UM73 19-1620): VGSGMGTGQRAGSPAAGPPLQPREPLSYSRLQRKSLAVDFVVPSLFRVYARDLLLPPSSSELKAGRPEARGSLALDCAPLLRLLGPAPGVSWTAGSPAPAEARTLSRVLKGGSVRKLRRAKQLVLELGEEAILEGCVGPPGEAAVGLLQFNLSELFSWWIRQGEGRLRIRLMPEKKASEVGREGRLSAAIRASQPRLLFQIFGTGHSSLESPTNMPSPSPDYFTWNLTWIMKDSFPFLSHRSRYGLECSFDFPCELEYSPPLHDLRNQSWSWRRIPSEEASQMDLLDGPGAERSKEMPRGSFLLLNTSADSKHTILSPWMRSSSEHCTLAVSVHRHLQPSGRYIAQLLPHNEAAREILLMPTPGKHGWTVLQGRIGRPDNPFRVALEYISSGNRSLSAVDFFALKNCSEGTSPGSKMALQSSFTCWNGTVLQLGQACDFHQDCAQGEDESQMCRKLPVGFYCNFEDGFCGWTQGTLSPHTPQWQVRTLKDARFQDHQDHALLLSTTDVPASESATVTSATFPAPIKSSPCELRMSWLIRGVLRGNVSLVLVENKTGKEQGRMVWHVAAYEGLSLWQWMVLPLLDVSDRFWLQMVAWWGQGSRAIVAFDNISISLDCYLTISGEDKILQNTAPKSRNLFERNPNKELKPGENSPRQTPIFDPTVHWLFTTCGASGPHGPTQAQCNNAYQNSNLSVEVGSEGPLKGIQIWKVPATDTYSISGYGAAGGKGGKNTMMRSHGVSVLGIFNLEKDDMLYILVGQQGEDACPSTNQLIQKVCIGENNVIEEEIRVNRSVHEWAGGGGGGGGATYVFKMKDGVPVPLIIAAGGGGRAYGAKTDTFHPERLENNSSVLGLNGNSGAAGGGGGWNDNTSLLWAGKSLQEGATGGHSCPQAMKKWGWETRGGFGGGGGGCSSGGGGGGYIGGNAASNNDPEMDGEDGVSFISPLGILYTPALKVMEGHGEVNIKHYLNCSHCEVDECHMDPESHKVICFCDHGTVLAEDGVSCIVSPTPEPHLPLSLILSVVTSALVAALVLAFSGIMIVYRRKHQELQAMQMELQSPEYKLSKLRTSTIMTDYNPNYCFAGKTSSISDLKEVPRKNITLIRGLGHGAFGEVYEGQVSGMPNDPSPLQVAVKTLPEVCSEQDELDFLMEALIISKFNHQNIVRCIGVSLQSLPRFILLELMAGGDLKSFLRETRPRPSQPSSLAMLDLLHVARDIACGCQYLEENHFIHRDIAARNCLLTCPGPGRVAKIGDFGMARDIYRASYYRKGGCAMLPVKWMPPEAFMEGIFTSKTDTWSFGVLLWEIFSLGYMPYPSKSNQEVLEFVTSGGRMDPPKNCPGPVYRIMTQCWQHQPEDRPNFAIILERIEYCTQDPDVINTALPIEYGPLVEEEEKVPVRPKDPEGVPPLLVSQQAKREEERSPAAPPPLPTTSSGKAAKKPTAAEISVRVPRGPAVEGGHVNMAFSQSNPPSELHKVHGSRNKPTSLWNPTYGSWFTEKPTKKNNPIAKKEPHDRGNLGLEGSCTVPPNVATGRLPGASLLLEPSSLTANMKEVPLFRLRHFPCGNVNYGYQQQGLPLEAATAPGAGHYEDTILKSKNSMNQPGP
Experimental: as §1

TEL-ALK-G1202R-BaF3 = target: T4, TEL-ALK-G1202R-BaF3 (Homo sapiens, UniProt Q9UM73, G1202R, cells depend on it); test: Cell proliferation experiment (Cell-Titer GLO), TEL-ALK-G1202R-BaF3; assay type: cell-based; settings: 72 h, read-out: IC50 TEL-ALK G1202R-BaF3
T4 construct: fused on or other part: TEL (ETV6) N-terminal oligomerising part fused before the ALK intracellular/kinase part; P41212 (Transcription factor ETV6)
T4 sequence (Q9UM73 whole entry G1202R, the tested form may be a part): as the sequence (Q9UM73 whole entry F1174L, the tested form may be a part) above, with L1174F, G1202R counted along it
Experimental: as §2, §3, §4

NCI-H3122 = test: Cell proliferation experiment (Cell-Titer GLO), NCI-H3122; assay type: cell-based; settings: Homo sapiens, 72 h
Experimental: as §2, §3, §4

T1 sequence (Q9UM73 19-1620 L1196M): as the sequence (Q9UM73 19-1620) above, with L1178M counted along it

Structure (SMILES) | IC50 (ALK L1196M) [nM] | GI50 (TEL-ALK-F1174L-BaF3) [nM] | IC50 (Wild-Type ALK) [nM] | GI50 (TEL-ALK-G1202R-BaF3) [nM] | IC50 (NCI-H3122) [nM]
CC(C)S(=O)(=O)c1nn(C)cc1Nc1nc(Nc2cc(F)c(C3CCN(C)CC3)c3c2O[C@H](C)C3)ncc1C(F)(F)F [REX-D8, (R)—N^2-(5-fluoro-2-methyl-4-(1-methylpiperidin-4-yl)-2,3-dihydrobenzofuran-7-yl)-N^4-(3-(isopropylsulfonyl)-1-methyl-1H-pyrazol-4-yl)-5-(trifluoromethyl)pyrimidine-2,4-diamine] |  | 11.4 |  | > 180 | 
Cc1cc(Nc2ncc(C(F)(F)F)c(Nc3cn(C)nc3S(=O)(=O)CC(C)C)n2)c2c(c1C1CCN(C)CC1)C[C@@H](C)O2 [REX-D10, (R)—N^2-(2,5-dimethyl-4-(1-methylpiperidin-4-yl)-2,3-dihydrobenzofuran-7-yl)-N^4-(3-(isobutylsulfonyl)-1-methyl-1H-pyrazol-4-yl)-5-(trifluoromethyl)pyrimidine-2,4-diamine] | < 0.5 | < 200 | 17.1 | > 180 | 14.2
Cc1cc(Nc2ncc(Cl)c(Nc3cn(C)nc3S(=O)(=O)C(C)C)n2)c2c(c1C1CCN(CCO)CC1)C[C@@H](C)O2 [REX-D11, (R)-2-(4-(7-((5-chloro-4-((3-(isopropylsulfonyl)-1-methyl-1H-pyrazol-4-yl)amino)pyrimidin-2-yl)amino)-2,5-dimethyl-2,3-dihydrobenzofuran-4-yl)piperidin-1-yl)ethanol] | < 0.5 | 10.7 | 8.46 | > 180 | 10.6
Cc1cc(Nc2ncc(Cl)c(Nc3cn(C)nc3S(=O)(=O)C(C)C)n2)c2c(c1C1CCNCC1)CCC(C)O2 (centres unmarked) [REX-D22, 5-chloro-N^2-(2,6-dimethyl-5-(piperidin-4-yl)chroman-8-yl)-N^4-(3-(isopropylsulfonyl)-1-methyl-1H-pyrazol-4-yl)pyrimidine-2,4-diamine] |  | 32.6 |  | > 180 | 
Cc1cc(Nc2ncc(Cl)c(Nc3cn(C)nc3S(=O)(=O)C(C)C)n2)c2c(c1C1CCN(C)CC1)CCC(C)O2 (centres unmarked) [REX-D25, 5-chloro-N^2-(2,6-dimethyl-5-(1-methylpiperidin-4-yl)chroman-8-yl)-N^4-(3-(isopropylsulfonyl)-1-methyl-1H-pyrazol-4-yl)pyrimidine-2,4-diamine] |  | 11.1 |  | > 180 | 
Cc1cc(Nc2nc(Nc3cn(C)nc3S(=O)(=O)C(C)C)c3sccc3n2)c2c(c1C1CCNCC1)C[C@@H](C)O2 [REX-D29, (R)—N^2-(2,5-dimethyl-4-(piperidin-4-yl)-2,3-dihydrobenzofuran-7-yl)-N^4-(3-(isopropylsulfonyl)-1-methyl-1H-pyrazol-4-yl)thieno[3,2-d]pyrimidine-2,4-diamine] |  | > 500 |  | > 180 | 
Cc1cc(Nc2ncc(Cl)c(Nc3cn(C)nc3S(=O)(=O)CC(C)C)n2)c2c(c1C1CCNCC1)C[C@@H](C)O2 [REX-D37, (R)-5-chloro-N^2-(2,5-dimethyl-4-(piperidin-4-yl)-2,3-dihydrobenzofuran-7-yl)-N^4-(3-(isobutylsulfonyl)-1-methyl-1H-pyrazol-4-yl)pyrimidine-2,4-diamine] |  | 58.7 |  | > 180 | 

Other lines, results leading:

IC50 (ALK L1196M) [nM] | GI50 (TEL-ALK-F1174L-BaF3) [nM] | IC50 (Wild-Type ALK) [nM] | GI50 (TEL-ALK-G1202R-BaF3) [nM] | IC50 (NCI-H3122) [nM] | Structure (SMILES)
< 0.5 | 80.1 | 15 | > 180 | 10.7 | Cc1cc(Nc2ncc(C(F)(F)F)c(Nc3cn(C)nc3S(=O)(=O)C(C)C)n2)c2c(c1C1CCN(CCO)CC1)C[C@@H](C)O2 [REX-D5, (R)-2-(4-(7-((4-((3-(isopropylsulfonyl)-1-methyl-1H-pyrazol-4-yl)amino)-5-(trifluoromethyl)pyrimidin-2-yl)amino)-2,5-dimethyl-2,3-dihydrobenzofuran-4-yl)piperidin-1-yl)ethanol]
1.02 | 51.8 | 15.8 | > 180 | 11.8 | Cc1cc(Nc2ncc(C(F)(F)F)c(Nc3cn(C4CC4)nc3S(=O)(=O)C(C)C)n2)c2c(c1C1CCN(C)CC1)C[C@@H](C)O2 [REX-D9, (R)—N^4-(1-cyclopropyl-3-(isopropylsulfonyl)-1H-pyrazol-4-yl)-N^2-(2,5-dimethyl-4-(1-methylpiperidin-4-yl)-2,3-dihydrobenzofuran-7-yl)-5-(trifluoromethyl)pyrimidine-2,4-diamine]
 | 17.8 |  | > 180 |  | CC(C)S(=O)(=O)c1nn(C)cc1Nc1nc(Nc2cc(F)c(C3CCNCC3)c3c2O[C@H](C)C3)ncc1Cl [REX-D21, (R)-5-chloro-N^2-(5-fluoro-2-methyl-4-(piperidin-4-yl)-2,3-dihydrobenzofuran-7-yl)-N^4-(3-(isopropylsulfonyl)-1-methyl-1H-pyrazol-4-yl)pyrimidine-2,4-diamine]
 | < 10 |  | > 180 |  | CC(C)S(=O)(=O)c1nn(C)cc1Nc1nc(Nc2cc(F)c(C3CCN(C)CC3)c3c2O[C@H](C)C3)ncc1Cl [REX-D24, (R)-5-chloro-N^2-(5-fluoro-2-methyl-4-(1-methylpiperidin-4-yl)-2,3-dihydrobenzofuran-7-yl)-N^4-(3-(isopropylsulfonyl)-1-methyl-1H-pyrazol-4-yl)pyrimidine-2,4-diamine]
 | > 500 |  | > 180 |  | Cc1cc(Nc2nc(Nc3cn(C)nc3S(=O)(=O)C(C)C)c3sccc3n2)c2c(c1C1CCN(C)CC1)C[C@@H](C)O2 [REX-D30, (R)—N^2-(2,5-dimethyl-4-(1-methylpiperidin-4-yl)-2,3-dihydrobenzofuran-7-yl)-N^4-(3-(isopropylsulfonyl)-1-methyl-1H-pyrazol-4-yl)thieno[3,2-d]pyrimidine-2,4-diamine]
 | < 10 |  | > 180 |  | Cc1cc(Nc2ncc(Cl)c(Nc3cn(C)nc3S(=O)(=O)CC(C)C)n2)c2c(c1C1CCN(C)CC1)C[C@@H](C)O2 [REX-D38, (R)-5-chloro-N^2-(2,5-dimethyl-4-(1-methylpiperidin-4-yl)-2,3-dihydrobenzofuran-7-yl)-N^4-(3-(isobutylsulfonyl)-1-methyl-1H-pyrazol-4-yl)pyrimidine-2,4-diamine]
 | < 10 |  | > 180 |  | Cc1cc(Nc2ncc(Cl)c(Nc3cn(C)nc3S(=O)(=O)CC(C)C)n2)c2c(c1C1CCN(CCO)CC1)C[C@@H](C)O2 [REX-D39, (R)-2-(4-(7-((5-chloro-4-((3-(isobutylsulfonyl)-1-methyl-1H-pyrazol-4-yl)amino)pyrimidin-2-yl)amino)-2,5-dimethyl-2,3-dihydrobenzofuran-4-yl)piperidin-1-yl)ethanol]
 | 94.8 |  | > 180 |  | Cc1cc(Nc2ncc(Cl)c(Nc3cn(C4CC4)nc3S(=O)(=O)CC(C)C)n2)c2c(c1C1CCNCC1)C[C@@H](C)O2 [REX-D40, (R)-5-chloro-N^4-(1-cyclopropyl-3-(isobutylsulfonyl)-1H-pyrazol-4-yl)-N^2-(2,5-dimethyl-4-(piperidin-4-yl)-2,3-dihydrobenzofuran-7-yl)pyrimidine-2,4-diamine]
 | 23.7 |  | > 180 |  | Cc1cc(Nc2ncc(Cl)c(Nc3cn(C4CC4)nc3S(=O)(=O)CC(C)C)n2)c2c(c1C1CCN(C)CC1)C[C@@H](C)O2 [REX-D41, (R)-5-chloro-N^4-(1-cyclopropyl-3-(isobutylsulfonyl)-1H-pyrazol-4-yl)-N^2-(2,5-dimethyl-4-(1-methylpiperidin-4-yl)-2,3-dihydrobenzofuran-7-yl)pyrimidine-2,4-diamine]
